Test results as given in ChEMBL document CHEMBL3352227, “Synthesis, antimycobacterial and antibacterial evaluation of l-[(1R, 2S)-2-fluorocyclopropyl]fluoroquinolone derivatives containing an oxime functional moiety” (Eur J Med Chem, 2014).
Converted amounts (≈) assume the structure as drawn.

Assays:
Type in all cases: functional
[1] = tested on: Mycobacterium tuberculosis; assay: Antimycobacterial activity against Mycobacterium tuberculosis H37Rv ATCC 27294 by MABA method
[2] = tested on: Escherichia coli; assay: Antibacterial activity against Escherichia coli ATCC 25922 after 18 to 24 hrs by standard twofold serial dilution method
[3] = tested on: Escherichia coli; assay: Antibacterial activity against Escherichia coli 12-1 after 18 to 24 hrs by standard twofold serial dilution method
[4] = tested on: Escherichia coli; assay: Antibacterial activity against extended-spectrum beta-lactamase producing Escherichia coli 12-2 after 18 to 24 hrs by standard twofold serial dilution method
[5] = tested on: Escherichia coli; assay: Antibacterial activity against extended-spectrum beta-lactamase producing Escherichia coli 12-3 after 18 to 24 hrs by standard twofold serial dilution method
[6] = tested on: Escherichia coli; assay: Antibacterial activity against extended-spectrum beta-lactamase producing Escherichia coli 12-14 after 18 to 24 hrs by standard twofold serial dilution method
[7] = tested on: Escherichia coli; assay: Antibacterial activity against extended-spectrum beta-lactamase producing Escherichia coli 12-15 after 18 to 24 hrs by standard twofold serial dilution method
[8] = tested on: Klebsiella pneumoniae; assay: Antibacterial activity against Klebsiella pneumoniae 12-1 after 18 to 24 hrs by standard twofold serial dilution method
[9] = tested on: Klebsiella pneumoniae; assay: Antibacterial activity against Klebsiella pneumoniae 12-2 after 18 to 24 hrs by standard twofold serial dilution method
[10] = tested on: Klebsiella pneumoniae; assay: Antibacterial activity against Klebsiella pneumoniae 12-4 after 18 to 24 hrs by standard twofold serial dilution method
[11] = tested on: Klebsiella pneumoniae; assay: Antibacterial activity against extended-spectrum beta-lactamase producin Klebsiella pneumoniae 12-3 after 18 to 24 hrs by standard twofold serial dilution method
[12] = tested on: Klebsiella pneumoniae; assay: Antibacterial activity against extended-spectrum beta-lactamase producin Klebsiella pneumoniae 12-4 after 18 to 24 hrs by standard twofold serial dilution method
[13] = tested on: Klebsiella pneumoniae; assay: Antibacterial activity against extended-spectrum beta-lactamase producin Klebsiella pneumoniae 12-7 after 18 to 24 hrs by standard twofold serial dilution method
[14] = tested on: Klebsiella pneumoniae; assay: Antibacterial activity against extended-spectrum beta-lactamase producin Klebsiella pneumoniae 12-14 after 18 to 24 hrs by standard twofold serial dilution method
[15] = tested on: Pseudomonas aeruginosa; assay: Antibacterial activity against Pseudomonas aeruginosa 12-12 after 18 to 24 hrs by standard twofold serial dilution method
[16] = tested on: Pseudomonas aeruginosa; assay: Antibacterial activity against Pseudomonas aeruginosa 12-14 after 18 to 24 hrs by standard twofold serial dilution method
[17] = tested on: Staphylococcus aureus; assay: Antibacterial activity against Staphylococcus aureus ATCC 25923 after 18 to 24 hrs by standard twofold serial dilution method
[18] = tested on: Staphylococcus aureus; assay: Antibacterial activity against methicillin-sensitive Staphylococcus aureus 12-1 after 18 to 24 hrs by standard twofold serial dilution method
[19] = tested on: Staphylococcus aureus; assay: Antibacterial activity against methicillin-sensitive Staphylococcus aureus 12-2 after 18 to 24 hrs by standard twofold serial dilution method
[20] = tested on: Staphylococcus aureus; assay: Antibacterial activity against methicillin-sensitive Staphylococcus aureus 12-4 after 18 to 24 hrs by standard twofold serial dilution method
[21] = tested on: Staphylococcus aureus; assay: Antibacterial activity against methicillin-sensitive Staphylococcus aureus 12-5 after 18 to 24 hrs by standard twofold serial dilution method
[22] = tested on: Staphylococcus aureus; assay: Antibacterial activity against methicillin-resistant Staphylococcus aureus 12-2 after 18 to 24 hrs by standard twofold serial dilution method
[23] = tested on: Staphylococcus aureus; assay: Antibacterial activity against methicillin-resistant Staphylococcus aureus 12-4 after 18 to 24 hrs by standard twofold serial dilution method
[24] = tested on: Staphylococcus aureus; assay: Antibacterial activity against methicillin-resistant Staphylococcus aureus 12-5 after 18 to 24 hrs by standard twofold serial dilution method
[25] = tested on: Staphylococcus epidermidis; assay: Antibacterial activity against methicillin-sensitive Staphylococcus epidermidis 12-1 after 18 to 24 hrs by standard twofold serial dilution method
[26] = tested on: Staphylococcus epidermidis; assay: Antibacterial activity against methicillin-sensitive Staphylococcus epidermidis 12-3 after 18 to 24 hrs by standard twofold serial dilution method
[27] = tested on: Staphylococcus epidermidis; assay: Antibacterial activity against methicillin-sensitive Staphylococcus epidermidis 12-6 after 18 to 24 hrs by standard twofold serial dilution method
[28] = tested on: Staphylococcus epidermidis; assay: Antibacterial activity against methicillin-sensitive Staphylococcus epidermidis 12-8 after 18 to 24 hrs by standard twofold serial dilution method
[29] = tested on: Staphylococcus epidermidis; assay: Antibacterial activity against methicillin-resistant Staphylococcus epidermidis 12-1 after 18 to 24 hrs by standard twofold serial dilution method
[30] = tested on: Staphylococcus epidermidis; assay: Antibacterial activity against methicillin-resistant Staphylococcus epidermidis 12-6 after 18 to 24 hrs by standard twofold serial dilution method
[31] = tested on: Streptococcus pneumoniae; assay: Antibacterial activity against Streptococcus pneumoniae ATCC 49619 after 18 to 24 hrs by standard twofold serial dilution method
[32] = tested on: Streptococcus pneumoniae; assay: Antibacterial activity against Streptococcus pneumoniae 12-18 after 18 to 24 hrs by standard twofold serial dilution method

Molecule NC[C@H]1/C(=N\OCc2ccccc2)CN1c1cc2c(cc1F)c(=O)c(C(=O)O)cn2[C@@H]1C[C@@H]1F has an MIC [1] of 0.5 µg/mL (≈ 1.07 µM), an MIC [2] of 0.125 µg/mL (≈ 0.267 µM) and an MIC [3] of 2 µg/mL (≈ 4.27 µM). The MIC [4] was 128 µg/mL (≈ 273 µM), the MIC [5] was 16 µg/mL (≈ 34.2 µM) and the MIC [6] was 64 µg/mL (≈ 137 µM). For the same molecule, the MIC [7] was greater than 128 µg/mL, the MIC [8] was 0.125 µg/mL (≈ 0.267 µM) and the MIC [9] was 0.06 µg/mL (≈ 0.128 µM). The MIC [10] was 0.25 µg/mL (≈ 0.534 µM), the MIC [11] was 32 µg/mL (≈ 68.3 µM) and the MIC [12] was 8 µg/mL (≈ 17.1 µM). For the same molecule, the MIC [13] was 1 µg/mL (≈ 2.13 µM), the MIC [14] was 64 µg/mL (≈ 137 µM) and the MIC [15] was 2 µg/mL (≈ 4.27 µM). For the same molecule, the MIC [16] was 6 µg/mL (≈ 12.8 µM), the MIC [17] was 0.015 µg/mL (≈ 0.032 µM) and the MIC [18] was 0.125 µg/mL (≈ 0.267 µM). For the same molecule, the MIC [19] was 0.03 µg/mL (≈ 0.064 µM), the MIC [20] was 0.03 µg/mL (≈ 0.064 µM) and the MIC [21] was 0.125 µg/mL (≈ 0.267 µM). It also gave an MIC [22] of 16 µg/mL (≈ 34.2 µM), an MIC [23] of 16 µg/mL (≈ 34.2 µM) and an MIC [24] of 8 µg/mL (≈ 17.1 µM). It also gave an MIC [25] of 0.125 µg/mL (≈ 0.267 µM), an MIC [26] of 0.25 µg/mL (≈ 0.534 µM) and an MIC [27] of 0.125 µg/mL (≈ 0.267 µM). It also gave an MIC [28] of 2 µg/mL (≈ 4.27 µM), an MIC [29] of 4 µg/mL (≈ 8.54 µM) and an MIC [30] of 16 µg/mL (≈ 34.2 µM). For the same molecule, the MIC [31] was 0.25 µg/mL (≈ 0.534 µM) and the MIC [32] was 1 µg/mL (≈ 2.13 µM).

CO/N=C1/CN(c2cc3c(cc2F)c(=O)c(C(=O)O)cn3[C@@H]2C[C@@H]2F)[C@@H]1CN showed an MIC [1] of 1 µg/mL (≈ 2.55 µM), an MIC [2] of 0.06 µg/mL (≈ 0.153 µM) and an MIC [3] of 0.5 µg/mL (≈ 1.27 µM). For the same molecule, the MIC [4] was greater than 128 µg/mL, the MIC [5] was 128 µg/mL (≈ 326 µM) and the MIC [6] was 128 µg/mL (≈ 326 µM). It also gave an MIC [7] greater than 128 µg/mL, an MIC [8] of 1 µg/mL (≈ 2.55 µM) and an MIC [9] of 0.5 µg/mL (≈ 1.27 µM). It also gave an MIC [10] of 0.25 µg/mL (≈ 0.637 µM), an MIC [11] of 128 µg/mL (≈ 326 µM) and an MIC [12] of 16 µg/mL (≈ 40.8 µM). For the same molecule, the MIC [13] was 4 µg/mL (≈ 10.2 µM), the MIC [14] was 128 µg/mL (≈ 326 µM) and the MIC [15] was 1 µg/mL (≈ 2.55 µM). For the same molecule, the MIC [16] was 64 µg/mL (≈ 163 µM), the MIC [17] was 0.5 µg/mL (≈ 1.27 µM) and the MIC [18] was 0.5 µg/mL (≈ 1.27 µM). It also gave an MIC [19] of 0.5 µg/mL (≈ 1.27 µM), an MIC [20] of 0.25 µg/mL (≈ 0.637 µM) and an MIC [21] of 0.5 µg/mL (≈ 1.27 µM). It also gave an MIC [22] of 64 µg/mL (≈ 163 µM), an MIC [23] of 128 µg/mL (≈ 326 µM) and an MIC [24] of 64 µg/mL (≈ 163 µM). The MIC [25] was 0.5 µg/mL (≈ 1.27 µM), the MIC [26] was 1 µg/mL (≈ 2.55 µM) and the MIC [27] was 0.5 µg/mL (≈ 1.27 µM). The MIC [28] was 8 µg/mL (≈ 20.4 µM), the MIC [29] was 16 µg/mL (≈ 40.8 µM) and the MIC [30] was 16 µg/mL (≈ 40.8 µM). The MIC [31] was 0.5 µg/mL (≈ 1.27 µM) and the MIC [32] was 2 µg/mL (≈ 5.1 µM).

CCO/N=C1/CN(c2cc3c(cc2F)c(=O)c(C(=O)O)cn3[C@@H]2C[C@@H]2F)[C@@H]1CN showed an MIC [1] of 2 µg/mL (≈ 4.92 µM), an MIC [2] of 0.06 µg/mL (≈ 0.148 µM) and an MIC [3] of 0.25 µg/mL (≈ 0.615 µM). The MIC [4] was 128 µg/mL (≈ 315 µM), the MIC [5] was 16 µg/mL (≈ 39.4 µM) and the MIC [6] was 64 µg/mL (≈ 157 µM). For the same molecule, the MIC [7] was greater than 128 µg/mL, the MIC [8] was 0.25 µg/mL (≈ 0.615 µM) and the MIC [9] was 0.25 µg/mL (≈ 0.615 µM). It also gave an MIC [10] of 0.25 µg/mL (≈ 0.615 µM), an MIC [11] of 64 µg/mL (≈ 157 µM) and an MIC [12] of 16 µg/mL (≈ 39.4 µM). It also gave an MIC [13] of 1 µg/mL (≈ 2.46 µM), an MIC [14] of 64 µg/mL (≈ 157 µM) and an MIC [15] of 1 µg/mL (≈ 2.46 µM). The MIC [16] was 32 µg/mL (≈ 78.7 µM), the MIC [17] was less than 0.008 µg/mL and the MIC [18] was 0.06 µg/mL (≈ 0.148 µM). It also gave an MIC [19] of 0.06 µg/mL (≈ 0.148 µM), an MIC [20] of 0.03 µg/mL (≈ 0.0738 µM) and an MIC [21] of 0.03 µg/mL (≈ 0.0738 µM). The MIC [22] was 32 µg/mL (≈ 78.7 µM), the MIC [23] was 32 µg/mL (≈ 78.7 µM) and the MIC [24] was 32 µg/mL (≈ 78.7 µM). The MIC [25] was 0.06 µg/mL (≈ 0.148 µM), the MIC [26] was 0.125 µg/mL (≈ 0.308 µM) and the MIC [27] was 0.06 µg/mL (≈ 0.148 µM). It also gave an MIC [28] of 4 µg/mL (≈ 9.84 µM), an MIC [29] of 8 µg/mL (≈ 19.7 µM) and an MIC [30] of 64 µg/mL (≈ 157 µM). For the same molecule, the MIC [31] was 0.25 µg/mL (≈ 0.615 µM) and the MIC [32] was 1 µg/mL (≈ 2.46 µM).
